The numbers were not newly measured in patent US20070292887A1, “Immunohistochemical Methods” (Bayer Pharmaceuticals Corporation, priority 2003, published 2007), which cites them from elsewhere.

Molecules are shown by their SMILES. Like-named read-outs stand apart in the source and are kept apart here.

For one series, the system named is MDA-MB-231 xenografts. Conditions: MDA-MB-231 xenografts in mice.
In series [1] the test system is SKOV (human ovarian cancer) cells. Conditions: preincubation of SKOV cells.
The test system of series [2] is human cancer cell lines. Conditions: in vitro.
In a further series the test system is SKOV3 xenografts. Conditions: SKOV3 xenografts in mice.
The test system of series [3] is keratinocytes (normal skin). Conditions: biopsies of normal skin prior to and following administration, humans.
Series [4] deals with human cancer cell lines. Conditions: in vivo.

`COc1cc2ncnc(Nc3ccc(F)c(Cl)c3)c2cc1OCCCN1CCOCC1` [ZD1839]: in the series on MDA-MB-231 xenografts, the “constitutive ERK MAP kinase activation” value was “inhibition” and the tumor growth rates entry was “reductions in tumor growth rates”. In addition, in series [1], the “EGF-induced increases in activation of ERK MAP kinases” value was “block” and the “EGF-induced increases in activation of PKB/Akt” value was “block”. The “proliferation of human cancer cell lines” value with human cancer cell lines [2] was “inhibited the proliferation”. In addition, in the series on SKOV3 xenografts, the “constitutive ERK MAP kinase activation” value is listed as “inhibition” and the tumor growth rates entry was “reductions in tumor growth rates”. Besides, in series [3], the “expression of Ki-67 in keratinocytes” value is “decreased expression” and the “expression of activated MAPK in keratinocytes” value is listed as “decreased expression”. Also, the “proliferation of human cancer cell lines” value in the series on human cancer cell lines [4] was “inhibited the proliferation”.
